Experimental findings from patent publication EP4678629A1, “IONIZABLE LIPID MOLECULE, PREPARATION METHOD THEREFOR AND USE THEREOF” (Maxirna (Shanghai) Pharmaceutical Co., Ltd., priority 2023, dated 2024) are described below.

For orientation: viability means a read-out of living cells in per cent, often relative to untreated cells.

Data set [1] is described as follows: Size and polydispersity index (PDI) of the lipid nanoparticle by dynamic light scattering. To be noted: LNP encapsulating eGFP mRNA, ionizable lipid/DOPE/cholesterol/DMG-PEG2000 50/10/48.25/1.25 mol%, N/P 12; for Particle size: in nm (unit assumed). The class given is physicochemical. As to the method: (§1) The ionizable lipid compound and positive control 1 from Example I were dissolved in ethanol at a molar ratio of 50:10:48.25:1.25 with DOPE, cholesterol, and DMG-PEG2000 (all purchased from A.V.T (Shanghai) Pharmaceutical Co., Ltd.) to prepare an ethanol lipid solution. The enhanced green fluorescent protein (eGFP) mRNA was diluted in 20 mM citrate buffer (pH=6.1) to obtain an mRNA aqueous solution. By using a microfluidic device (Micro&Nano Biologics Co., Ltd., model: INano ™ L) mix ethanol lipid solution and mRNA aqueous solution in a volume ratio of 1:3 to prepare a lipid nanoparticle with a total lipid to mRNA N/P ratio of 12. The medium was replaced by ultrafiltration, ethanol was removed and volumed with DPBS. Finally, the lipid nanoparticle was filtered through a 0.2 µm sterile filter to obtain an LNP preparation encapsulating eGFP mRNA using ionizable lipid/DOPE/cholesterol/DMG-PEG2000 (50/10/48.25/1.25 mol%), with an mRNA content of 0.002 mg/ml-0.5 mg/mL.
(§2) Using Malvern Zetasizer Nano ZS (Malvern UK), the size and polydispersity index (PDI) of the lipid nanoparticle were determined by dynamic light scattering in 173° backscatter detection mode, and the encapsulation efficiency was measured by Ribogreen method.

Data set [2] in a line: Encapsulation efficiency of the lipid nanoparticle (eGFP mRNA) by Ribogreen method. The class given is physicochemical. To be noted: LNP encapsulating eGFP mRNA, ionizable lipid/DOPE/cholesterol/DMG-PEG2000 50/10/48.25/1.25 mol%, N/P 12. As to the method: as §1, §2
A short description of data set [3]: In vitro transfection of cells with eGFP-mRNA lipid nanoparticle (LNP preparation), fluorescence imaging and flow cytometry. The class given is cell-based, mouse. To be noted: mouse, dc2.4 cells, 200 ng of mRNA per well, after 24 hours; read-out: Cell viability, %. The source says: (§3) This example used mouse bone marrow-derived dendritic cells DC2.4 (purchased from Millipore) as the validation cell line for a lipid nanoparticle transfection experiment. DC2.4 cells adhered to the wall for growth. All operational steps of cell culture strictly followed the prescribed procedures, using sterile reagents for aseptic operations under a sterile workbench. The main operational steps involved were as follows: • 1) Cell recovery: the preserved cell cryopreservation solution was removed from the -80 °C freezer and immediately placed in a 37 °C water bath for rapid and continuous shaking, allowing it to completely melt within one minute. Fresh culture medium was added to a 15 mL centrifuge tube in advance, and the cell fluid was added to the centrifuge tube in a biosafety cabinet. A centrifuge tube of the same mass was taken, placed symmetrically in the centrifuge, and centrifuged at low speed for 5 minutes at 1200 rpm. After centrifugation, the upper clear liquid was removed, and an appropriate amount of culture medium was slowly added along the tube wall. After the cells were gently blown and dispersed evenly, the cell suspension was drawn and added to the prepared culture bottle. The state and distribution of cells in the early stage of recovery were observed under a microscope. The culture bottle was incubated in a 5% CO2 incubator at 37 °C, and the recovery time was recorded. • 2) Cell passaging: Under a microscope, if the cell density in the field of view reached 80%-90%, cells could be passaged and cultured. Adherent cells required trypsin digestion. In order to avoid residual serum in the culture medium reducing trypsin activity, the original culture medium was removed, and DPBS solution was added to wash once. After suctioning out the DPBS solution, trypsin was added to degrade the protein at the intercellular junction, thereby separating the cells and facilitating further cultivation. The mixture was gently shaken well and placed into the incubator for digestion for 2-3 minutes. After digestion was complete, an appropriate amount of culture medium was immediately added to the original culture dish to terminate digestion. Finally, a pipette was used to carefully blow off the cells and blow them until they were evenly dispersed, and then the cells were inoculated and subcultured in a certain proportion according to experimental requirements.
(§4) Transfection of DC2.4 cells • 1) DC2.4 cell recovery: the frozen DC2.4 cells were taken out from the -80 °C refrigerator and immediately put into a 37 °C water bath for rapid thawing. After melting, they were added to the preheated culture medium, and centrifuged at 1200 rpm for 5 minutes. The supernatant was discarded, and an appropriate amount of DMEM medium containing 10% FBS was added to resuspend the recovered DC2.4 cells, which were placed in a 37 °C, 5% CO2 incubator for activation culture. • 2) According to experimental requirements, DC2.4 cells were transfected into 24 well plates one day in advance. By counting cells, the number and viability of cells were recorded, and a cell suspension with 2 × 10^5 cells per well were taken. Then, a certain volume of DMEM medium containing 10% FBS was added and mixed evenly, wherein 1 mL was added per well for subsequent transfection experiments. • 3) After 24 hours, the culture medium was gently aspirated with a pipette 30 minutes in advance, and each well was washed with 1 mL of DPBS and aspirated. […] The mixture was placed in a 37 °C, 5% CO2 incubator for activation cultivation. • 6) After 24 hours, cell viability (%), eGFP positivity rate (%), and mean fluorescence intensity data were obtained through cell fluorescence imaging and flow cytometry.
In general terms: Flow cytometry measures light scatter and fluorescence of single cells or particles in a stream.

The subject of the next data set is DC2.4 cells. Described as above. The class given is cell-based, mouse. The conditions noted are these: eGFP positivity rate, DC2.4 cells, 200 ng of mRNA per well, after 24 hours.
From the text: as §3, §4

In data set [1], `CCCCCCCCCCCCOC(=O)CCCCCN(CCCO)CCCN(CCCCCC(=O)OCCCCCCCCCCCC)CCCCCC(=O)OCCCCCCCCCCCC` [Example 45, Didodecyl 6,6'-((3-((6-(dodecoxy)-6-oxohexyl)(3-hydroxypropyl)amino)propyl)azahexyl)dihexanoate] returned a PDI of 0.20 and a Particle size of 84.66. The “Encapsulation rate, %” value in data set [2] is reported as 99.60%. Also, the viability at 24 h in data set [3] worked out at 95%. Also, the “Positive rate, %” value with DC2.4 cells is listed as 95.29%.
On the same counts, the results for `CCCCCCCCCCCCCOC(=O)CCCCCN(CCCCO)CCCN(CCCCCC(=O)OCCCCCCCCCCCCC)CCCCCC(=O)OCCCCCCCCCCCCC` [Example 31, 6,6'-((3-((4-hydroxybutyl)(6-oxo-6-(tridecyloxy)hexyl)amino)propyl)azadiyl)ditridecyl dihexanoate] are 0.15, 84.05, 99.36%, 94.4% and 97.43%.
As to `CCCCCCCCCCCOC(=O)CCCCN(CCCCO)CCCN(CCCCC(=O)OCCCCCCCCCCC)CCCCC(=O)OCCCCCCCCCCC` [Example 43, Diundecyl 5,5'-((3-((4-hydroxybutyl)(5-oxo-5-(undecyloxy)pentyl)amino)propyl)azahexyl)dipentanoate], in data set [1], the PDI amounted to 0.14. For the same compound, the “Encapsulation rate, %” value in data set [2] worked out at 87.08%. Further, the viability at 24 h in data set [3] was determined as 88.2%. Besides, in the data set with DC2.4 cells, the “Positive rate, %” value worked out at 97.48%.
With `CCCCC/C=C\C/C=C\CCCCCCCCOC(=O)CCCCN(CCCO)CCCN(CCCCC(=O)OCCCCCCCC/C=C\C/C=C\CCCCC)CCCCC(=O)OCCCCCCCC/C=C\C/C=C\CCCCC` [Example 111], in data set [1], the PDI stood at 0.12 and the Particle size amounted to 96.92. The “Encapsulation rate, %” value in data set [2] is 92.91%. Besides, the viability at 24 h in data set [3] is 91%. The “Positive rate, %” value with DC2.4 cells amounted to 95.82%.
`CCCCCCCCCCCCCOC(=O)CCCCCCCN(CCCO)CCCN(CCCCCCCC(=O)OCCCCCCCCCCCCC)CCCCCCCC(=O)OCCCCCCCCCCCCC` [Example 29] returned a PDI in data set [1] of 0.16. The “Encapsulation rate, %” value in data set [2] came to 99.55%. For the same compound, the viability at 24 h in data set [3] worked out at 96.7%. In addition, in the data set on DC2.4 cells, the “Positive rate, %” value was determined as 95.33%.
On the same counts, the results for `CCCCCCCCCCCOC(=O)CCN(CCCCO)CCCN(CCC(=O)OCCCCCCCCCCC)CCC(=O)OCCCCCCCCCCC` [Example 69, Diundecyl 3,3'-((3-((4-hydroxybutyl)(3-oxo-3-(undecyloxy)propyl)amino)propyl)azanediyl)dipropionate] are 0.13, 85.47%, 91.9% and 97.10%.
For `CC/C=C\C/C=C\CCCOC(=O)CCCCCCCN(CCO)CCCN(CCCCCCCC(=O)OCCC/C=C\C/C=C\CC)CCCCCCCC(=O)OCCC/C=C\C/C=C\CC` [Example 7, Di((4Z,7Z)-dec-4,7-dien-1-yl)8,8'-((3-((8-(((4Z,7Z)-dec-4,7-dien-1-yl)oxo)-8-oxooctyl)(2-hydroxyethyl)amino)propyl)azanediyl)dioctanoate] the same measures were 0.09, 86.64%, 76.9% and 75.68%.
For `CCCCC/C=C\C/C=C\CCCCCCCCOC(=O)CCCN(CCCO)CCCCN(CCCC(=O)OCCCCCCCC/C=C\C/C=C\CCCCC)CCCC(=O)OCCCCCCCC/C=C\C/C=C\CCCCC` [Example 104] the same measures were 0.16, 95.12%, 96.7% and 92.63%.
Compound `CCCCCCCCCCCOC(=O)CCCN(CCO)CCCN(CCCC(=O)OCCCCCCCCCCC)C(=O)CCC(=O)OCCCCCCCCCCC` [Example 109] displayed a PDI in data set [1] of 0.33. In addition, the “Encapsulation rate, %” value in data set [2] came out at 79.70%. The viability at 24 h in data set [3] is 89%. In the data set with DC2.4 cells, the “Positive rate, %” value was found to be 71.17%.
In data set [1], `CCCCCCCCCCOC(=O)CCCN(CCCO)CCCN(CCCC(=O)OCCCCCCCCCC)CCCC(=O)OCCCCCCCCCC` [Example 113, Didecyl 4,4'-((3-((4-(decyloxy)-4-oxobutyl)(3-hydroxypropyl)amino)propyl)azetidinyl)dibutanoate] showed a PDI of 0.14 and a Particle size of 88.62. For the same compound, the “Encapsulation rate, %” value in data set [2] is 91.23%. For the same compound, the viability at 24 h in data set [3] turned out to be 93.2%. The “Positive rate, %” value in the data set with DC2.4 cells is 92.51%.
In data set [1], `CCCCCCCCCCCCCOC(=O)CCCCCCN(CCO)CCCN(CCCCCCC(=O)OCCCCCCCCCCCCC)CCCCCCC(=O)OCCCCCCCCCCCCC` [Example 33] gave a PDI of 0.13. Further, in data set [2], the “Encapsulation rate, %” value was 98.96%. Also, the viability at 24 h in data set [3] is 96.4%. In the data set with DC2.4 cells, the “Positive rate, %” value is on record as 95.18%.
For `CCCCCCCCCCCOC(=O)CCCCCCN(CCO)CCCN(CCCCCCC(=O)OCCCCCCCCCCC)CCCCCCC(=O)OCCCCCCCCCCC` [Example 32], in data set [1], the PDI is 0.13 and the Particle size came to 83.34. For the same compound, in data set [2], the “Encapsulation rate, %” value was determined as 99.30%. Also, in data set [3], the viability at 24 h was 96.6%. In addition, in the data set on DC2.4 cells, the “Positive rate, %” value is listed as 95.28%.
On the same counts, the results for `CCCCCCCCCCCCCCOC(=O)CCCCCCCN(CCCCO)CCCN(CCCCCCCC(=O)OCCCCCCCCCCCCCC)CCCCCCCC(=O)OCCCCCCCCCCCCCC` [Example 61, Ditetradecyl 8,8'-((3-((4-hydroxybutyl)(8-oxo-8-(tetradecyloxy)octyl)amino)propyl)azanediyl)dioctanoate] are 0.13, 82.47, 97.38%, 71.2% and 95.85%.
Consider `CCCCCC/C=C\COC(=O)CCCCCCCCCN(CCO)CCCN(CCCCCCCCCC(=O)OC/C=C\CCCCCC)CCCCCCCCCC(=O)OC/C=C\CCCCCC` [Example 15, Di((Z)-non-2-en-1-yl)10,10'-((3-((2-hydroxyethyl)(10-(((Z)-non-2-en-1-yl)oxo)-10-oxodecyl)amino)propyl)azanediyl)dicaprate], for which the PDI in data set [1] is 0.20. The “Encapsulation rate, %” value in data set [2] is given as 90.28%. Moreover, the viability at 24 h in data set [3] amounted to 84.4%. In addition, the “Positive rate, %” value with DC2.4 cells was determined as 91.39%.
As to `CCCCCCCCCCCOC(=O)CCN(CCO)CCCN(CCC(=O)OCCCCCCCCCCC)CCC(=O)OCCCCCCCCCCC` [Example 67, Diundecyl 3,3'-((3-((2-hydroxyethyl)(3-oxo-3-(undecyloxy)propyl)amino)propyl)azanediyl)dipropionate], in data set [1], the PDI is given as 0.20 and the Particle size came to 86.08. The “Encapsulation rate, %” value in data set [2] came out at 66.08%. Moreover, in data set [3], the viability at 24 h came out at 95.8%. Besides, the “Positive rate, %” value in the data set on DC2.4 cells turned out to be 98.32%.
